Experimental data from ChEMBL document CHEMBL1201862, “PubChem BioAssay data set” (2004).
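96-well plates; 48 h exposure; 5 concentrations. Endpoints by linear interpolation between flanking doses. Not reached: highest tested concentration assigned. The concentration for 50% growth inhibition is given as GI50.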 Active and inactive are the calls of the source. Cut-off read from the data, not from the text of the source: active = GI50 up to about 1.1 µM and inactive = higher.

Legend:
Assay in all cases: inhibition of tumour cell growth, NCI panel, 48 h
[1] = tested on: RXF 631
[2] = tested on: KM12
[3] = tested on: SNB-75
[4] = tested on: NCI-H23
[5] = tested on: HCC 2998
[6] = tested on: M19-MEL
[7] = tested on: HOP-62
[8] = tested on: XF498
[9] = tested on: LOX IMVI
[10] = tested on: NCI-H522
[11] = tested on: SF-268
[12] = tested on: NCI-H460
[13] = tested on: OVCAR-4
[14] = tested on: SR
[15] = tested on: RXF 393
[16] = tested on: SK-MEL-28
[17] = tested on: UO-31
[18] = tested on: K562
[19] = tested on: SNB-78
[20] = tested on: Malme-3M
[21] = tested on: OVCAR-3
[22] = tested on: SK-MEL-2
[23] = tested on: M14
[24] = tested on: CCRF-CEM
[25] = tested on: SNB-19
[26] = tested on: SK-OV-3
[27] = tested on: DMS-114
[28] = tested on: ACHN
[29] = tested on: DLD-1
[30] = tested on: HCT-116
[31] = tested on: UACC-257
[32] = tested on: MOLT-4
[33] = tested on: TK-10
[34] = tested on: OVCAR-5
[35] = tested on: SN12C
[36] = tested on: HL-60
[37] = tested on: A498
[38] = tested on: HT-29
[39] = tested on: U-251
[40] = tested on: LXFL 529
[41] = tested on: EKVX
[42] = tested on: SF-539
[43] = tested on: UACC-62
[44] = tested on: A549
[45] = tested on: DMS-273
[46] = tested on: SW-620
[47] = tested on: IGROV-1
[48] = tested on: 786-0
[49] = tested on: NCI-H226
[50] = tested on: SF-295
[51] = tested on: CAKI-1
[52] = tested on: KM-20L2
[53] = tested on: HOP-92
[54] = tested on: RPMI-8226
[55] = tested on: SK-MEL-5
[56] = tested on: HCT-15
[57] = tested on: OVCAR-8

In the case of `O=S(O)c1cc(Cl)cc(Cl)c1OCc1ccccc1`, the GI50 [1] is reported as > 100 µM (inactive), the GI50 [2] is reported as > 100 µM (inactive) and the GI50 [3] is reported as > 100 µM (inactive). For the same compound, the GI50 [4] was > 100 µM (inactive), the GI50 [5] was > 100 µM (inactive) and the GI50 [6] was > 100 µM (inactive). For the same compound, the GI50 [7] was > 100 µM (inactive), the GI50 [8] was > 100 µM (inactive) and the GI50 [9] was > 100 µM (inactive). For the same compound, the GI50 [10] was > 100 µM (inactive), the GI50 [11] was > 100 µM (inactive) and the GI50 [12] was > 100 µM (inactive). The GI50 [13] was > 100 µM (inactive), the GI50 [14] was > 100 µM (inactive) and the GI50 [15] was > 100 µM (inactive). The GI50 [16] was > 100 µM (inactive), the GI50 [17] was > 100 µM (inactive) and the GI50 [18] was > 100 µM (inactive). The GI50 [19] was > 100 µM (inactive), the GI50 [20] was > 100 µM (inactive) and the GI50 [21] was > 100 µM (inactive). The GI50 [22] was > 100 µM (inactive), the GI50 [23] was > 100 µM (inactive) and the GI50 [24] was > 100 µM (inactive). The GI50 [25] was > 100 µM (inactive), the GI50 [26] was > 100 µM (inactive) and the GI50 [27] was > 100 µM (inactive). For the same compound, the GI50 [28] was > 100 µM (inactive), the GI50 [29] was > 100 µM (inactive) and the GI50 [30] was > 100 µM (inactive). The GI50 [31] was > 100 µM (inactive), the GI50 [32] was > 100 µM (inactive) and the GI50 [33] was > 100 µM (inactive). The GI50 [34] was > 100 µM (inactive), the GI50 [35] was > 100 µM (inactive) and the GI50 [36] was > 100 µM (inactive). The GI50 [37] was > 100 µM (inactive), the GI50 [38] was > 100 µM (inactive) and the GI50 [39] was > 100 µM (inactive). For the same compound, the GI50 [40] was > 100 µM (inactive), the GI50 [41] was > 100 µM (inactive) and the GI50 [42] was > 100 µM (inactive). For the same compound, the GI50 [43] was > 100 µM (inactive).

In the case of `O=[S@@]1Nc2ccc(Br)cc2S1`, the GI50 [44] is reported as 4.56 µM (inactive), the GI50 [45] is reported as 1.73 µM (inactive) and the GI50 [1] is reported as 3.3 µM (inactive). The GI50 [46] was 0.74 µM (active), the GI50 [2] was 2.48 µM (inactive) and the GI50 [3] was > 100 µM (inactive). The GI50 [47] was 53 µM (inactive), the GI50 [4] was 25.2 µM (inactive) and the GI50 [6] was 3.98 µM (inactive). The GI50 [8] was > 100 µM (inactive), the GI50 [9] was 0.437 µM (active) and the GI50 [10] was 0.887 µM (active). For the same compound, the GI50 [48] was > 100 µM (inactive), the GI50 [11] was 2.44 µM (inactive) and the GI50 [14] was 7.14 µM (inactive). For the same compound, the GI50 [49] was > 100 µM (inactive), the GI50 [50] was 40 µM (inactive) and the GI50 [16] was 4.53 µM (inactive). The GI50 [17] was 1.05 µM (active), the GI50 [51] was 1.15 µM (inactive) and the GI50 [18] was 0.766 µM (active). The GI50 [19] was > 100 µM (inactive), the GI50 [20] was 97.3 µM (inactive) and the GI50 [21] was 31.2 µM (inactive). For the same compound, the GI50 [22] was 4.67 µM (inactive), the GI50 [23] was 1.4 µM (inactive) and the GI50 [52] was 0.294 µM (active). The GI50 [24] was 1.64 µM (inactive), the GI50 [25] was 2.77 µM (inactive) and the GI50 [26] was 22.5 µM (inactive). The GI50 [53] was > 100 µM (inactive), the GI50 [28] was 1.07 µM (active) and the GI50 [29] was 6.08 µM (inactive). For the same compound, the GI50 [30] was 4.66 µM (inactive), the GI50 [31] was > 100 µM (inactive) and the GI50 [54] was > 100 µM (inactive). The GI50 [32] was 6.47 µM (inactive), the GI50 [33] was 2.79 µM (inactive) and the GI50 [55] was 12.6 µM (inactive). For the same compound, the GI50 [35] was 37.7 µM (inactive), the GI50 [36] was 2.22 µM (inactive) and the GI50 [38] was 2.13 µM (inactive). For the same compound, the GI50 [39] was 5.18 µM (inactive), the GI50 [40] was 0.282 µM (active) and the GI50 [41] was 41.6 µM (inactive). For the same compound, the GI50 [42] was 3.94 µM (inactive) and the GI50 [43] was 1.07 µM (active).

With `CCOC(=O)C12CCCC1(O)N(NC(=O)c1cccc(Cl)c1)C(C)=C2C(=O)OC` (configuration not stated) the GI50 [44] was > 100 µM (inactive), the GI50 [45] was 56.2 µM (inactive) and the GI50 [1] was 55.7 µM (inactive). The GI50 [46] was > 100 µM (inactive), the GI50 [2] was > 100 µM (inactive) and the GI50 [3] was 34.5 µM (inactive). The GI50 [47] was > 100 µM (inactive), the GI50 [5] was > 100 µM (inactive) and the GI50 [6] was > 100 µM (inactive). The GI50 [7] was > 100 µM (inactive), the GI50 [8] was > 100 µM (inactive) and the GI50 [9] was > 100 µM (inactive). The GI50 [10] was 40.5 µM (inactive), the GI50 [48] was > 100 µM (inactive) and the GI50 [11] was > 100 µM (inactive). The GI50 [12] was > 100 µM (inactive), the GI50 [13] was > 100 µM (inactive) and the GI50 [14] was 53 µM (inactive). For the same compound, the GI50 [49] was > 100 µM (inactive), the GI50 [15] was 46.5 µM (inactive) and the GI50 [50] was 72.4 µM (inactive). The GI50 [16] was > 100 µM (inactive), the GI50 [17] was > 100 µM (inactive) and the GI50 [51] was > 100 µM (inactive). The GI50 [18] was 96.6 µM (inactive), the GI50 [20] was > 100 µM (inactive) and the GI50 [21] was > 100 µM (inactive). The GI50 [22] was > 100 µM (inactive), the GI50 [23] was > 100 µM (inactive) and the GI50 [52] was > 100 µM (inactive). The GI50 [25] was > 100 µM (inactive), the GI50 [26] was > 100 µM (inactive) and the GI50 [56] was > 100 µM. For the same compound, the GI50 [27] was > 100 µM (inactive), the GI50 [28] was > 100 µM (inactive) and the GI50 [29] was > 100 µM (inactive). For the same compound, the GI50 [30] was > 100 µM (inactive), the GI50 [31] was 69.5 µM (inactive) and the GI50 [57] was > 100 µM (inactive). The GI50 [54] was 56 µM (inactive), the GI50 [32] was 55.7 µM (inactive) and the GI50 [34] was > 100 µM (inactive). For the same compound, the GI50 [55] was > 100 µM (inactive), the GI50 [35] was > 100 µM (inactive) and the GI50 [36] was > 100 µM (inactive). For the same compound, the GI50 [37] was > 100 µM (inactive), the GI50 [38] was > 100 µM (inactive) and the GI50 [39] was > 100 µM (inactive). For the same compound, the GI50 [40] was > 100 µM (inactive), the GI50 [41] was 56.6 µM (inactive) and the GI50 [42] was > 100 µM (inactive). The GI50 [43] was > 100 µM (inactive).
